Measured values as given in ChEMBL document CHEMBL1150977, “A quantitative analysis of kinase inhibitor selectivity” (Nat Biotechnol, 2008).

Columns and labels:
[1] = target: Tyrosine-protein kinase HCK (Homo sapiens, UniProt P08631)
[2] = target: Proto-oncogene tyrosine-protein kinase ROS (Homo sapiens, UniProt P08922)
SRSF protein kinase 2 = SRSF protein kinase 2 (Homo sapiens, UniProt P78362)
[3] = target: T1, Discoidin domain-containing receptor 2 (Homo sapiens, UniProt Q16832)
T1 sequence (Q16832 whole entry): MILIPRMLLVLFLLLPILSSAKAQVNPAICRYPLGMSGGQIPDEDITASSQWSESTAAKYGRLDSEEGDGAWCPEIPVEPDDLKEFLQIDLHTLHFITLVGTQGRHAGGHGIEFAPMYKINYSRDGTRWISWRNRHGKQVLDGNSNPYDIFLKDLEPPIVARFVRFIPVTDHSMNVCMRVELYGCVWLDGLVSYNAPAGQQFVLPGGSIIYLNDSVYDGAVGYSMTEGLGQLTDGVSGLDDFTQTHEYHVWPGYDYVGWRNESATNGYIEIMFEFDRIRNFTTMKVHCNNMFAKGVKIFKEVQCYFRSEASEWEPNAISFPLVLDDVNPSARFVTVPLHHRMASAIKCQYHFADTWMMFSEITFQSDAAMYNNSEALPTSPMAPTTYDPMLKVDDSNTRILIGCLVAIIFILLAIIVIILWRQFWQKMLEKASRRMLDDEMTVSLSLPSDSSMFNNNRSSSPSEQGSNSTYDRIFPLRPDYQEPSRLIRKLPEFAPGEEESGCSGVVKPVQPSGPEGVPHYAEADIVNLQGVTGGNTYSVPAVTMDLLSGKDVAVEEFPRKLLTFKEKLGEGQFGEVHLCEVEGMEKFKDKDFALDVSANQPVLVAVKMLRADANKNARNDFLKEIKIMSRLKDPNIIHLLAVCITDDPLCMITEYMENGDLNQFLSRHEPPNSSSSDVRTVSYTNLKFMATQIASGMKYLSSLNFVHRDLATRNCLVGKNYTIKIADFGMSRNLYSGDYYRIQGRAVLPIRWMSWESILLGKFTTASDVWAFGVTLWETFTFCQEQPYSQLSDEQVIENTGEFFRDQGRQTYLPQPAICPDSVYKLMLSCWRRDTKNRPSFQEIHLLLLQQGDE

[4] = target: Protein kinase C theta type (Homo sapiens, UniProt Q04759)
[5] = target: Casein kinase I isoform delta (Homo sapiens, UniProt P48730)
[6] = target: T2, Serine/threonine-protein kinase LATS1 (Homo sapiens, UniProt O95835)
T2 sequence (O95835 whole entry): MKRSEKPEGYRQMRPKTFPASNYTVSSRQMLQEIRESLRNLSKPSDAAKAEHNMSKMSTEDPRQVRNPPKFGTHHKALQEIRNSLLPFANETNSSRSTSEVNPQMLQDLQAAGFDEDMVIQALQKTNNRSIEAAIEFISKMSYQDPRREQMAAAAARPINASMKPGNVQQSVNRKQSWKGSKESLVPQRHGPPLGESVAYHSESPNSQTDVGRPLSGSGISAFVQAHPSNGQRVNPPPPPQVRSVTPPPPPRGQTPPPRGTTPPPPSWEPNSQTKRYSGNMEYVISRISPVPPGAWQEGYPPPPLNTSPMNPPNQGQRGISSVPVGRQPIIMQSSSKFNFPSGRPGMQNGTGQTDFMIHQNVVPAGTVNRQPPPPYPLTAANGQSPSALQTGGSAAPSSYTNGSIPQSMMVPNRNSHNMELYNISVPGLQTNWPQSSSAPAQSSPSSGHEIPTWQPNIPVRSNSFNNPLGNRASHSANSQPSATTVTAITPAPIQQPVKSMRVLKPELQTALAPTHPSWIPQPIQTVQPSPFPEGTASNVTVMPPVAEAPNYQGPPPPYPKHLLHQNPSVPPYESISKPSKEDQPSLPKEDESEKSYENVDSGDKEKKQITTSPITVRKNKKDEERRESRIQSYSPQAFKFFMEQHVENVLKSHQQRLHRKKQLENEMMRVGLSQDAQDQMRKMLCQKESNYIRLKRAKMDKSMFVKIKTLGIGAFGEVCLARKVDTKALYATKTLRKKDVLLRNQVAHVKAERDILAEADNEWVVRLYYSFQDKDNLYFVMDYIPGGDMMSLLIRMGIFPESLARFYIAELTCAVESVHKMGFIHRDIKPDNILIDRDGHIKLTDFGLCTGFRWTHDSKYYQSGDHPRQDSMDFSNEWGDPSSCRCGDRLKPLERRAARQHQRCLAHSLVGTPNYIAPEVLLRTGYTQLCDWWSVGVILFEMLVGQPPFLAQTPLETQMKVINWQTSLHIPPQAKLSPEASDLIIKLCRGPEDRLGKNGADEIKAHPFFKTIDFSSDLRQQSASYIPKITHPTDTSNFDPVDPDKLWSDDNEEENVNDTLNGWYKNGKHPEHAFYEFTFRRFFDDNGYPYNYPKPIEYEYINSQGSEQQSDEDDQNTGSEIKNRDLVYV

[7] = target: Tyrosine-protein kinase ABL1 (Homo sapiens, UniProt P00519, E255K)
[8] = target: Dual specificity mitogen-activated protein kinase kinase 1 (Homo sapiens, UniProt Q02750)

COCC(=O)NC/C=C/c1ccc2ncnc(Nc3ccc(Oc4ccc(C)nc4)c(C)c3)c2c1 [CP-724714]
Kd [1]: > 10 µM
Kd [2]: > 10 µM
Kd (SRSF protein kinase 2): > 10 µM
Kd [3]: > 10 µM
Kd [4]: > 10 µM
Kd [5]: > 10 µM
Kd [6]: > 10 µM
Kd [7]: > 10 µM
Kd [8]: > 10 µM

Nc1nc(Nc2ccc(S(N)(=O)=O)cc2)nn1C(=O)c1c(F)cccc1F [JNJ-7706621]
Kd [2]: > 10 µM
Kd (SRSF protein kinase 2): > 10 µM
Kd [3]: > 10 µM
Kd [5]: > 10 µM
Kd [6]: > 10 µM

CCOc1cc2ncc(C#N)c(Nc3ccc(F)c(Cl)c3)c2cc1NC(=O)/C=C/CN(C)C [PELITINIB]
Kd [2]: > 10 µM
Kd (SRSF protein kinase 2): > 10 µM
Kd [3]: > 10 µM
Kd [4]: > 10 µM
Kd [5]: 1.1 µM
Kd [6]: > 10 µM

Oc1ccc(-c2nc(-c3ccncc3)c(-c3ccc(F)cc3)[nH]2)cc1 [SB-202190]
Kd [1]: > 10 µM
Kd [2]: > 10 µM
Kd (SRSF protein kinase 2): > 10 µM
Kd [3]: 1.6 µM
Kd [4]: > 10 µM
Kd [6]: > 10 µM
Kd [7]: > 10 µM
Kd [8]: > 10 µM

NC(=O)c1ccc(-c2nc(-c3ccc4c(c3)OCO4)c(-c3ccccn3)[nH]2)cc1 [SB-431542]
Kd [1]: > 10 µM
Kd [2]: > 10 µM
Kd (SRSF protein kinase 2): > 10 µM
Kd [3]: > 10 µM
Kd [4]: > 10 µM
Kd [6]: > 10 µM
Kd [7]: > 10 µM
Kd [8]: > 10 µM
